Assay results: ChEMBL document CHEMBL2163207, “Predicting new indications for approved drugs using a proteochemometric method” (J Med Chem, 2012)

Assays:
[1] = test system: MDA-MB-231; assay: Cytotoxicity against human MDA-MB-231 cells after 48 hrs by MTS assay; type: functional, cell-based; settings: MDA-MB-231, 48 h
[2] = target: T1, Cadherin-11 (Mus musculus) (UniProt P55288); assay: Binding affinity to mouse recombinant CDH11 extracellular domain 1-2 by surface plasmon resonance
T1 sequence (whole entry): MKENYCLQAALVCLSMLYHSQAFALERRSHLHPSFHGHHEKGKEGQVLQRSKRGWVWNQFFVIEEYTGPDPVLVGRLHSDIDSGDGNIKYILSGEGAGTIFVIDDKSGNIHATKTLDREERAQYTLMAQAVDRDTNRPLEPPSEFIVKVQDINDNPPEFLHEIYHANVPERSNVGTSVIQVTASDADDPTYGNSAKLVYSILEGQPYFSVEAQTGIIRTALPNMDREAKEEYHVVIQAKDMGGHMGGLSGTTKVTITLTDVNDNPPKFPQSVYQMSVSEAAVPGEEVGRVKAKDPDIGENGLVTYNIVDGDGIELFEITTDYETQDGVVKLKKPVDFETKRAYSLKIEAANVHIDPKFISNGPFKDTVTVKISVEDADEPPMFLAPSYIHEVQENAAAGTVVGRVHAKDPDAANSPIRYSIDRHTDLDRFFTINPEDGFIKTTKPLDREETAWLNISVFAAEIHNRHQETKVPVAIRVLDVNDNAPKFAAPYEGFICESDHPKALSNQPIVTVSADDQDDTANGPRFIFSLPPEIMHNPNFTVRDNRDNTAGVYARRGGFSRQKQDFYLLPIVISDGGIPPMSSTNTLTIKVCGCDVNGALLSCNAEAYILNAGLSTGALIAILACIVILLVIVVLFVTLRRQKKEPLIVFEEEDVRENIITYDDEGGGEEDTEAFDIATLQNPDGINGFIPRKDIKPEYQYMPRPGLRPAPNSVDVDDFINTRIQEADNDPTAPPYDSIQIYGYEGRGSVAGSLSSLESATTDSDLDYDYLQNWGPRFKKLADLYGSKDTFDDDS

[3] = test system: Plasma; assay: Plasma concentration in rat; type: ADME, cell-free
[4] = test system: Plasma; assay: Plasma concentration in human; type: ADME, cell-free

Activity [2]	concentration [3] [nM]	concentration [4] [nM]	SMILES	IC50 [1] [µM]
Dose-dependent effect	–	–	Cc1ccc(C)c(-c2cc(C(F)(F)F)nn2-c2ccc(S(N)(=O)=O)cc2)c1 [DIMETHYL CELECOXIB]	36
Dose-dependent effect	1000	1000	Cc1ccc(-c2cc(C(F)(F)F)nn2-c2ccc(S(N)(=O)=O)cc2)cc1 [CELECOXIB]	40
